Results published in patent US12371410B2, “Isoxazoline compounds and use thereof” (METISA BIOTECHNOLOGY CO., LTD, priority 2019, dated 2025).

Assays:
Type in all cases: in vivo
[1] = test system: Chilo suppressalis; assay: Insecticidal activity against Chilo suppressalis, spraying of rice seedlings; settings: 72 h; for mortality at 0.25 µg/mL: 0.25 mg/L, read-out: Mortality (%, 3 days after administration) 0.25 mg/L; for mortality at 0.25 µg/mL / mortality at 0.5 µg/mL / mortality at 1 µg/mL / mortality at 5 µg/mL: parallel comparative test; for mortality at 0.5 µg/mL: 0.5 mg/L, read-out: Mortality (%, 3 days after administration) 0.5 mg/L; for mortality at 1 µg/mL: 1 mg/L, read-out: Mortality (%, 3 days after administration) 1 mg/L; for mortality at 5 µg/mL: 5 mg/L, read-out: Mortality (%, 3 days after administration) 5 mg/L; for pest or weed control at 1 µg/mL: dose 1 mg/L; for pest or weed control at 1 µg/mL / pest or weed control at 0.5 µg/mL: 3 days after administration, 3rd instar larvae, read-out: lethality rate to Chilo suppressalis; for pest or weed control at 0.5 µg/mL: dose 0.5 mg/L
Protocol: (§1) The compound to be determined was dissolved in a mixed solvent of acetone/methanol (1:1), followed by dilution with water containing 0.1% (wt) Tween 80 to a desired concentration.
(§2) The activities of the respective compounds against Leucania separata, Plutella xylostella, and Chilo suppressalis were determined by Airbrush spraying method.
The determination method was as follows: 1) Preparation of rice seedlings: rice plants were cultivated in a plastic cup with a diameter of 4.5 cm and a height of 4 cm in a thermostatic chamber (temperature 26-28° C., relative humidity 60-80%, illumination 16 hL: 8 hD), and when the rice plants were developed to have 4-5 leaves, strong seedlings with identical growth vigour were selected for chemical treatment, and each treatment was replicated 3 times. 2) Preparation of insects to be tested: Chilo suppressalis, 3rd instar larvae, continuous lab rearing. 3) Inoculation of insects by spraying rice plant stems: The whole rice seedlings were sprayed evenly by using the spraying method, with 15 mL of the compound solution for each treatment. Firstly, the blank control was treated, and then the above procedure was replicated according to the order of test concentration from low to high. After rice seedlings were spray-treated, they were placed in the shade to dry, and the stems about 5 cm from the stem bases were cut off to feed the insects to be tested. Glass culture dishes with a diameter of 90 mm were prepared; each dish was padded with a filter paper at the bottom and added with water to keep moisture; about 5 rice stems were put into each dish and inoculated with 10 larvae, and each culture dish was then sealed with a non-woven and cultured in a thermostatic chamber. The number of residual live insects was examined 3 days after administration.

[2] = test system: Plutella xylostella; assay: Insecticidal activity against Plutella xylostella, Airbrush spraying of cabbage leaf discs; settings: foliar, 72 h; for pest or weed control at 0.313 µg/mL: dose 0.313 mg/L; for pest or weed control at 0.313 µg/mL / pest or weed control at 0.156 µg/mL: three days after administration, 3rd instar larvae, read-out: lethality rate to Plutella xylostella; for pest or weed control at 0.156 µg/mL: dose 0.156 mg/L; for mortality at 0.156 µg/mL: 0.156 mg/L, read-out: Mortality (%, 3 days after administration) 0.156 mg/L; for mortality at 0.156 µg/mL / mortality at 0.313 µg/mL / mortality at 0.625 µg/mL / mortality at 1.25 µg/mL: parallel comparative test; for mortality at 0.313 µg/mL: 0.313 mg/L, read-out: Mortality (%, 3 days after administration) 0.313 mg/L; for mortality at 0.625 µg/mL: 0.625 mg/L, read-out: Mortality (%, 3 days after administration) 0.625 mg/L; for mortality at 1.25 µg/mL: 1.25 mg/L, read-out: Mortality (%, 3 days after administration) 1.25 mg/L
Protocol: as §1, §2
(§3) The determination method was as follows: Cabbage leaves were made into leaf discs with a diameter of 2 cm by using a hole puncher; the pressure of Airbrush spraying was 10 psi (about 0.7 kg/cm^2); both sides of each leaf disc were sprayed with 0.5 mL of the compound solution to be tested. After drying in the shade, ten 3rd instar larvae were inoculated for each treatment, and each treatment was replicated 3 times. After treatment, they were cultured in an observation room at a temperature of 25° C. and a relative humidity of 60-70%, and the number of surviving insects was examined and the mortality was calculated three days after administration.

[3] = test system: Leucania separata; assay: Insecticidal activity against Leucania separata, Airbrush spraying of corn leaf segments; settings: Mythimna separata, foliar, 72 h; dose 0.05 mg/L, three days after administration, 3rd instar larvae; read-out: lethality rate to Leucania separata
Protocol: as §1, §2
as §3, with “Corn” for “Cabbage”, “cut” for “made”, “into” for “into leaf discs with a diameter of”, “long segments;” for “by using a hole puncher;”, “segment” for “disc”, “3nd” for “3rd”

[4] = test system: Tetranychus cinnabarinus; assay: Acaricidal activity against Tetranychus cinnabarinus in greenhouse, bean seedling spraying; settings: solution concentration 5 mg/L, adult mites, after 72 hours, read-out: lethality rate to Tetranychus cinnabarinus
Protocol: A bean seedling with two true leaves was taken for inoculating 30-40 adult mites of Tetranychus cinnabarinus. After examining the cardinal number, the whole seedling was treated by spraying with a hand-held sprayer, each treatment being replicated 3 times, and then placed in a standard observation room. The number of surviving mites was examined after 72 hours, and the mortality was calculated.

## CCC(=O)N(CC(=O)NCC(F)(F)F)C(=O)c1ccc(C2=NOC(c3cc(Cl)cc(Cl)c3)(C(F)(F)F)C2)cc1C (stereo not shown) [KC3, reference compound]
[1]
  mortality at 0.25 µg/mL: 0%
  mortality at 0.5 µg/mL: 30%
  mortality at 1 µg/mL: 100%
  mortality at 5 µg/mL: 100%

## Cc1cc(C2=NOC(c3cc(Cl)c(F)c(Cl)c3)(C(F)(F)F)C2)ccc1C(=O)N(CC(=O)NCC(F)(F)F)C(=O)C1CC1 (stereo not shown) [Compound 2]
[1]
  pest or weed control at 1 µg/mL: > 90%
[2]
  pest or weed control at 0.313 µg/mL: > 90%
[3]
  pest or weed control at 0.05 µg/mL: > 90%
[4]
  pest or weed control at 5 µg/mL: ≥ 90%

## CCOCCC(=O)N(CC(=O)NCC(F)(F)F)C(=O)c1ccc(C2=NOC(c3cc(Cl)cc(Cl)c3)(C(F)(F)F)C2)cc1C (stereo not shown) [Compound 33]
[1]
  pest or weed control at 0.5 µg/mL: > 90%
  pest or weed control at 1 µg/mL: > 90%
[2]
  pest or weed control at 0.156 µg/mL: > 90%
  pest or weed control at 0.313 µg/mL: > 90%
[3]
  pest or weed control at 0.05 µg/mL: > 90%
[4]
  pest or weed control at 5 µg/mL: ≥ 90%

## CCCCOCC(=O)N(CC(=O)NCC(F)(F)F)C(=O)c1ccc(C2=NOC(c3cc(Cl)cc(Cl)c3)(C(F)(F)F)C2)cc1C (stereo not shown) [Compound 27]
[1]
  pest or weed control at 0.5 µg/mL: > 90%
  pest or weed control at 1 µg/mL: > 90%
[2]
  pest or weed control at 0.156 µg/mL: > 90%
  pest or weed control at 0.313 µg/mL: > 90%
[3]
  pest or weed control at 0.05 µg/mL: > 90%
[4]
  pest or weed control at 5 µg/mL: ≥ 90%

## Cc1cc(C2=NOC(c3cc(Cl)cc(Cl)c3)(C(F)(F)F)C2)ccc1C(=O)N(CC(=O)NCC(F)(F)F)C(=O)C1CC1 (stereo not shown) [Compound 1]
[1]
  mortality at 0.25 µg/mL: 73.3%
  mortality at 0.5 µg/mL: 83.3%
  mortality at 1 µg/mL: 100%
  mortality at 5 µg/mL: 100%
  pest or weed control at 1 µg/mL: > 90%
[2]
  pest or weed control at 0.313 µg/mL: > 90%
[3]
  pest or weed control at 0.05 µg/mL: > 90%
[4]
  pest or weed control at 5 µg/mL: ≥ 90%

## CCOCCC(=O)N(CC(=O)NCC(F)(F)F)C(=O)c1ccc(C2=NOC(c3cc(Cl)c(F)c(Cl)c3)(C(F)(F)F)C2)cc1C (stereo not shown) [Compound 34]
[1]
  pest or weed control at 1 µg/mL: > 90%
[2]
  pest or weed control at 0.156 µg/mL: > 90%
  pest or weed control at 0.313 µg/mL: > 90%
[3]
  pest or weed control at 0.05 µg/mL: > 90%
[4]
  pest or weed control at 5 µg/mL: ≥ 90%

## CCOCC(=O)N(CC(=O)NCC(F)(F)F)C(=O)c1ccc(C2=NOC(c3cc(Cl)cc(Cl)c3)(C(F)(F)F)C2)cc1C (stereo not shown) [Compound 21]
[1]
  pest or weed control at 0.5 µg/mL: > 90%
  pest or weed control at 1 µg/mL: > 90%
[2]
  pest or weed control at 0.156 µg/mL: > 90%
  pest or weed control at 0.313 µg/mL: > 90%
[3]
  pest or weed control at 0.05 µg/mL: > 90%
[4]
  pest or weed control at 5 µg/mL: ≥ 90%

## CC(=O)N(CC(=O)NCC(F)(F)F)C(=O)c1ccc(C2=NOC(c3cc(Cl)cc(Cl)c3)(C(F)(F)F)C2)cc1C (stereo not shown) [KC2, reference compound]
[1]
  mortality at 0.25 µg/mL: 0%
  mortality at 0.5 µg/mL: 53.3%
  mortality at 1 µg/mL: 100%
  mortality at 5 µg/mL: 100%

## COCCC(=O)N(CC(=O)NCC(F)(F)F)C(=O)c1ccc(C2=NOC(c3cc(Cl)cc(Cl)c3)(C(F)(F)F)C2)cc1C (stereo not shown) [Compound 31]
[1]
  mortality at 0.25 µg/mL: 80%
  mortality at 0.5 µg/mL: 96.7%
  mortality at 1 µg/mL: 100%
  mortality at 5 µg/mL: 100%
  pest or weed control at 0.5 µg/mL: > 90%
  pest or weed control at 1 µg/mL: > 90%
[2]
  mortality at 0.156 µg/mL: 100%
  mortality at 0.313 µg/mL: 100%
  mortality at 0.625 µg/mL: 100%
  mortality at 1.25 µg/mL: 100%
  pest or weed control at 0.156 µg/mL: > 90%
  pest or weed control at 0.313 µg/mL: > 90%
[3]
  pest or weed control at 0.05 µg/mL: > 90%
[4]
  pest or weed control at 5 µg/mL: ≥ 90%

## COC(=O)N(CC(=O)NCC(F)(F)F)C(=O)c1ccc(C2=NOC(c3cc(Cl)cc(Cl)c3)(C(F)(F)F)C2)cc1C (stereo not shown) [KC1, reference compound]
[1]
  mortality at 0.25 µg/mL: 0%
  mortality at 0.5 µg/mL: 0%
  mortality at 1 µg/mL: 0%
  mortality at 5 µg/mL: 10%
[2]
  mortality at 0.156 µg/mL: 20%
  mortality at 0.313 µg/mL: 36.7%
  mortality at 0.625 µg/mL: 70%
  mortality at 1.25 µg/mL: 100%
[4]
  pest or weed control at 5 µg/mL: 0%

## COCC(=O)N(CC(=O)NCC(F)(F)F)C(=O)c1ccc(C2=NOC(c3cc(Cl)cc(Cl)c3)(C(F)(F)F)C2)cc1C (stereo not shown) [Compound 19]
[1]
  mortality at 0.25 µg/mL: 86.7%
  mortality at 0.5 µg/mL: 100%
  mortality at 1 µg/mL: 100%
  mortality at 5 µg/mL: 100%
  pest or weed control at 0.5 µg/mL: > 90%
  pest or weed control at 1 µg/mL: > 90%
[2]
  mortality at 0.156 µg/mL: 100%
  mortality at 0.313 µg/mL: 100%
  mortality at 0.625 µg/mL: 100%
  mortality at 1.25 µg/mL: 100%
  pest or weed control at 0.156 µg/mL: > 90%
  pest or weed control at 0.313 µg/mL: > 90%
[3]
  pest or weed control at 0.05 µg/mL: > 90%
[4]
  pest or weed control at 5 µg/mL: ≥ 90%

## CCOCC(=O)N(CC(=O)NCC(F)(F)F)C(=O)c1ccc(C2=NOC(c3cc(Cl)c(F)c(Cl)c3)(C(F)(F)F)C2)cc1C (stereo not shown) [Compound 22]
[1]
  pest or weed control at 1 µg/mL: > 90%
[2]
  pest or weed control at 0.156 µg/mL: > 90%
  pest or weed control at 0.313 µg/mL: > 90%
[3]
  pest or weed control at 0.05 µg/mL: > 90%
[4]
  pest or weed control at 5 µg/mL: ≥ 90%
